# Measurements as given in patent publication US20240327393A1 (SIRONAX LTD., priority 2021, published 2024).
# Test system: HT-1080 (ATCC, CCL-121) cells
# Test: HT-1080 cell viability assay with ferroptosis inducer RSL3 (Cell Titer-Glo)
# Format: cell-based
# Settings: HT-1080 cells treated with RSL3; 3-fold, 10-point dilution, 1.1 μM highest concentration; Table 2; read-out: EC50 (nM), ferroptosis inhibitory activity
# In short: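 EC50 was derived by sigmoidal dose-response regression of CellTiter-Glo luminescence viability, expressed relative to untreated wells. Compounds were tested in a ten-point, threefold dilution series (highest 1.1 μM) in the presence of the ferroptosis inducer RSL3. HT-1080 cells had been seeded at 6000 per well and grown overnight first.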
row,SMILES,EC50 [nM]
1,"CC1CN(c2ccc(Nc3ccc4c(c3)OC(C)C(=O)N4)cc2)CC(C)O1 (stereo not shown) [Compound 144, 7-((4-(2,6-dimethylmorpholino)phenyl)amino)-2-methyl-2H-benzo[b][1,4]oxazin-3(4H)-one]",0.1 to 100

# Same assay, conditions: Homo sapiens; HT-1080 cells treated with RSL3; 3-fold, 10-point dilution, 1.1 μM highest concentration; Table 2; read-out: EC50 (nM), ferroptosis inhibitory activity
row,SMILES,EC50 [nM]
1,"Cc1cc(N2CC(C)OC(C)C2)ccc1Nc1ccc2c(c1)OCC(=O)N2C (stereo not shown) [Compound 51, 7-((4-(2,6-dimethylmorpholino)-2-methylphenyl)amino)-4-methyl-2H-benzo[b][1,4]oxazin-3(4H)-one]",0.1 to 100
2,"CN(C)CCn1c(=O)n(C)c2cc(Nc3ccc(N4CCC(C(F)(F)F)CC4)cc3)ccc21 [Compound 355, 1-(2-(dimethylamino)ethyl)-3-methyl-5-((4-(4-(trifluoromethyl)piperidin-1-yl)phenyl)amino)-1,3-dihydro-2H-benzo[d]imidazol-2-one]",0.1 to 100
3,"CN1CCOc2cc(Nc3ccc4c(c3)n(C)c(=O)n4C)ccc21 [Compound 288, 1,3-dimethyl-5-((4-methyl-3,4-dihydro-2H-benzo[b][1,4]oxazin-7-yl)amino)-1,3-dihydro-2H-benzo[d]imidazol-2-one]",0.1 to 100
4,COC1(C(F)(F)F)CCN(c2c(F)cc(Nc3ccc4c(c3)OCC(=O)N4C)cc2F)CC1 [Compound 161],0.1 to 100
5,"COc1nc(N2CCC(C(F)(F)F)CC2)ccc1Nc1ccc2c(c1)n(C)c(=O)n2C [Compound 377, 5-((2-methoxy-6-(4-(trifluoromethyl)piperidin-1-yl)pyridin-3-yl)amino)-1,3-dimethyl-1,3-dihydro-2H-benzo[d]imidazol-2-one]",0.1 to 100
6,"Cn1c(=O)n(C)c2cc(Nc3ccc(N4CCC(F)(F)CC4)cc3)ccc21 [Compound 297, 5-((4-(4,4-difluoropiperidin-1-yl)phenyl)amino)-1,3-dimethyl-1,3-dihydro-2H-benzo[d]imidazol-2-one]",0.1 to 100
7,"CC1CCN(c2ncc(Nc3ccc4c(c3)n(C)c(=O)n4C)cn2)CC1 [Compound 376, 1,3-dimethyl-5-((2-(4-methylpiperidin-1-yl)pyrimidin-5-yl)amino)-1,3-dihydro-2H-benzo[d]imidazol-2-one]",0.1 to 100
8,"CN1Cc2cc(Nc3ccc(N(C)C)cc3)ccc2C1=O [Compound 227, 5-((4-(dimethylamino)phenyl)amino)-2-methylisoindolin-1-one]",0.1 to 100
9,"CC1CCN(c2ccc(Nc3ccc4c(c3)CN(C)C4=N)cc2)CC1 [Compound 294, 1-imino-2-methyl-N-(4-(4-methylpiperidin-1-yl)phenyl)isoindolin-5-amine]",0.1 to 100
10,"Cc1cc(N2CCC(C)CC2)c(F)cc1Nc1ccc2c(c1)n(C)c(=O)n2C [Compound 264, 5-((5-fluoro-2-methyl-4-(4-methylpiperidin-1-yl)phenyl)amino)-1,3-dimethyl-1,3-dihydro-2H-benzo[d]imidazol-2-one]",0.1 to 100
11,"CC1CN(c2ccc(Nc3ccc4c(c3)OCC(=O)N4CCN(C)C)cc2)CC(C)O1 (stereo not shown) [Compound 80, 4-(2-(dimethylamino)ethyl)-7-((4-(2,6-dimethylmorpholino)phenyl)amino)-2H-benzo[b][1,4]oxazin-3(4H)-one]",0.1 to 100
12,"Cn1c(=O)n(C)c2cc(Nc3ccc(N4CCC(C(F)(F)F)CC4)cc3C#N)ccc21 [Compound 374, 2-((1,3-dimethyl-2-oxo-2,3-dihydro-1H-benzo[d]imidazol-5-yl)amino)-5-(4-(trifluoromethyl)piperidin-1-yl)benzonitrile]",0.1 to 100
13,"CN1C(=O)COc2cc(Nc3ccc(OC4CCCCC4)cc3)ccc21 [Compound 7, 7-((4-(cyclohexyloxy)phenyl)amino)-4-methyl-2H-benzo[b][1,4]oxazin-3(4H)-one]",0.1 to 100
14,"CN1C(=O)CCc2cc(Nc3ccc(N4CCC(C(F)(F)F)CC4)cc3)ccc21 [Compound 127, 1-methyl-6-((4-(4-(trifluoromethyl)piperidin-1-yl)phenyl)amino)-3,4-dihydroquinolin-2(1H)-one]",0.1 to 100
15,"COc1cc(Nc2ccc3c(c2)OCC(=O)N3C)ccc1N1CC(C)OC(C)C1 (stereo not shown) [Compound 70, 7-((4-(2,6-dimethylmorpholino)-3-methoxyphenyl)amino)-4-methyl-2H-benzo[b][1,4]oxazin-3(4H)-one]",0.1 to 100
16,"Cc1ccc(Cl)c(Nc2ccc3c(c2)CN(C)C3=O)c1 [Compound 230, 5-((2-chloro-5-methylphenyl)amino)-2-methylisoindolin-1-one]",0.1 to 100
17,"CN1Cc2cc(Nc3ccc(CN4CCCC4)cc3)ccc2C1=O [Compound 238, 2-methyl-5-((4-(pyrrolidin-1-ylmethyl)phenyl)amino)isoindolin-1-one]",1000 to 10000
18,"Cc1cc(N2CC(C)OC(C)C2)ccc1Nc1ccc2c(c1)CNC2 (stereo not shown) [Compound 440, N-(4-(2,6-dimethylmorpholino)-2-methylphenyl)isoindolin-5-amine]",0.1 to 100
19,"CC(C)(C)c1ccc(Nc2ccc3c(c2)OCC(=O)N3CCO)cc1 [Compound 82, 7-((4-(tert-butyl)phenyl)amino)-4-(2-hydroxyethyl)-2H-benzo[b][1,4]oxazin-3(4H)-one]",0.1 to 100

# Same assay, conditions: Homo sapiens; HT-1080 cells treated with RSL3; 3-fold, 10-point dilution, 1.1 μM highest concentration; Table 3; read-out: EC50 (nM), ferroptosis inhibitory activity
row,SMILES,EC50 [nM]
1,"Cc1cc(N2CCN(C(=O)C(F)(F)F)[C@@H](C)C2)ccc1Nc1ccc2c(c1)OCC(=O)N2 [Compound 552, (S)-7-((2-methyl-4-(3-methyl-4-(2,2,2-trifluoroacetyl)piperazin-1-yl)phenyl)amino)-2H-benzo[b][1,4]oxazin-3(4H)-one]",0.1 to 100
2,"Cc1cc(N2CCC(C)(O)CC2)ccc1Nc1ccc2c(c1)OCC(=O)N2 [Compound 541, 7-((4-(4-hydroxy-4-methylpiperidin-1-yl)-2-methylphenyl)amino)-2H-benzo[b][1,4]oxazin-3(4H)-on]",100 to 1000
3,"Cc1cc(N2CCC(C(F)(F)F)CC2)ccc1Nc1ccc2nccn2c1 [Compound 624, N-(2-methyl-4-(4-(trifluoromethyl)piperidin-1-yl)phenyl) imidazo[1,2-a]pyridin-6-amine]",0.1 to 100
4,"CC1=NCC(=O)Nc2ccc(Nc3ccc(N4CCC(C(F)(F)F)CC4)cc3C)cc21 [Compound 656, 5-methyl-7-[2-methyl-4-[4-(trifluoromethyl)-1-piperidyl]anilino]-1,3-dihydro-1,4-benzodiazepin-2-one]",0.1 to 100
5,"Cc1cc(N2CCC(C(F)(F)F)CC2)c(F)cc1Nc1ccc2c(c1)OCC(=O)N2 [Compound 488, 7-((5-fluoro-2-methyl-4-(4-(trifluoromethyl)piperidin-1-yl)phenyl)amino)-2H-benzo[b][1,4]oxazin-3(4H)-one]",0.1 to 100
6,"COc1cc(Nc2cnc3c(c2)OCC(=O)N3C)ccc1N1CCC(C(F)(F)F)CC1 [Compound 464, 7-({3-methoxy-4-[4-(trifluoromethyl)piperidin-1-yl]phenyl}amino)-4-methyl-2H-pyrido[3,2-b][1,4]oxazin-3-one]",0.1 to 100
7,"Cc1cc(N2CC(F)C2)ccc1Nc1ccc2c(c1)OCC(=O)N2 [Compound 572, 7-(4-(3-fluoroazetidin-1-yl)-2-methylphenylamino)-2H-benzo[b][1,4]oxazin-3(4H)-one]",0.1 to 100
8,"CNCc1cnc2cc(Nc3ccc(N4CCC(C(F)(F)F)CC4)cc3C)ccn12 [Compound 609, N-(2-methyl-4-(4-(trifluoromethyl)piperidin-1-yl)phenyl)-3-((methylamino)methyl)imidazo[1,2-a]pyridin-7-amine]",0.1 to 100
9,"Cc1cc(N2CC(C)OC(C)C2)ccc1Nc1cnc2c(c1)OCC(=O)N2C (stereo not shown) [Compound 457, 7-((4-(2,6-dimethylmorpholino)-2-methylphenyl)amino)-4-methyl-2H-pyrido[3,2-b][1,4]oxazin-3(4H)-one]",0.1 to 100
10,"Cc1cc(N2CC(C(F)F)C2)ccc1Nc1ccc2c(c1)OCC(=O)N2 [Compound 655, 7-[4-[3-(difluoromethyl)azetidin-1-yl]-2-methyl-anilino]-4H-1,4-benzoxazin-3-one]",0.1 to 100
11,"Cc1nc(N2CCN(CC(F)(F)F)CC2)ccc1Nc1ccc2c(c1)OCC(=O)N2 [Compound 521, 7-((2-methyl-6-(4-(2,2,2-trifluoroethyl)piperazin-1-yl)pyridin-3-yl)amino)-2H-benzo[b][1,4]oxazin-3(4H)-one]",0.1 to 100
12,"Cc1cc(N2CCC(F)(F)C2)ccc1Nc1ccc2c(c1)OCC(=O)N2 [Compound 597, 7-((4-(3,3-difluoropyrrolidin-1-yl)-2-methylphenyl)amino)-2H-benzo[b][1,4]oxazin-3(4H)-one]",0.1 to 100
13,"Cc1c(Nc2ccc3c(c2)OCC(=O)N3)ccc(N2CCC(C(F)(F)F)CC2)c1C#N [Compound 537, 2-methyl-3-((3-oxo-3,4-dihydro-2H-benzo[b][1,4]oxazin-7-yl)amino)-6-(4-(trifluoromethyl)piperidin-1-yl)benzonitrile]",0.1 to 100
14,"O=C1COc2cc(Nc3ccc(N4CCC(C(F)(F)F)CC4)nc3)ccc2N1 [Compound 474, 7-((6-(4-(trifluoromethyl)piperidin-1-yl)pyridin-3-yl)amino)-2H-benzo[b][1,4]oxazin-3(4H)-one]",0.1 to 100
15,"CN1C(=O)COc2cc(Nc3ccc(N4CCC(C(F)(F)F)CC4)cc3)c(N)cc21 [Compound 469, 6-amino-4-methyl-7-((4-(4-(trifluoromethyl)piperidin-1-yl)phenyl)amino)-2H-benzo[b][1,4]oxazin-3(4H)-one]",0.1 to 100
16,"Cc1cc(N2CCC(C(C)(C)O)CC2)ccc1Nc1ccc2c(c1)OCC(=O)N2 [Compound 542, 7-((4-(4-(2-hydroxypropan-2-yl)piperidin-1-yl)-2-methylphenyl)amino)-2H-benzo[b][1,4]oxazin-3(4H)-one]",0.1 to 100
17,"Cc1cc(N2CCC(C(F)(F)F)CC2)ccc1Nc1cnc2c(c1)OCC(=O)N2 [Compound 460, 7-((2-methyl-4-(4-(trifluoromethyl)piperidin-1-yl)phenyl)amino)-2H-pyrido[3,2-b][1,4]oxazin-3(4H)-one]",0.1 to 100
